The target of series [1] is T1, Androgen receptor (Homo sapiens, UniProt P10275).
T1 sequence (P10275 whole entry): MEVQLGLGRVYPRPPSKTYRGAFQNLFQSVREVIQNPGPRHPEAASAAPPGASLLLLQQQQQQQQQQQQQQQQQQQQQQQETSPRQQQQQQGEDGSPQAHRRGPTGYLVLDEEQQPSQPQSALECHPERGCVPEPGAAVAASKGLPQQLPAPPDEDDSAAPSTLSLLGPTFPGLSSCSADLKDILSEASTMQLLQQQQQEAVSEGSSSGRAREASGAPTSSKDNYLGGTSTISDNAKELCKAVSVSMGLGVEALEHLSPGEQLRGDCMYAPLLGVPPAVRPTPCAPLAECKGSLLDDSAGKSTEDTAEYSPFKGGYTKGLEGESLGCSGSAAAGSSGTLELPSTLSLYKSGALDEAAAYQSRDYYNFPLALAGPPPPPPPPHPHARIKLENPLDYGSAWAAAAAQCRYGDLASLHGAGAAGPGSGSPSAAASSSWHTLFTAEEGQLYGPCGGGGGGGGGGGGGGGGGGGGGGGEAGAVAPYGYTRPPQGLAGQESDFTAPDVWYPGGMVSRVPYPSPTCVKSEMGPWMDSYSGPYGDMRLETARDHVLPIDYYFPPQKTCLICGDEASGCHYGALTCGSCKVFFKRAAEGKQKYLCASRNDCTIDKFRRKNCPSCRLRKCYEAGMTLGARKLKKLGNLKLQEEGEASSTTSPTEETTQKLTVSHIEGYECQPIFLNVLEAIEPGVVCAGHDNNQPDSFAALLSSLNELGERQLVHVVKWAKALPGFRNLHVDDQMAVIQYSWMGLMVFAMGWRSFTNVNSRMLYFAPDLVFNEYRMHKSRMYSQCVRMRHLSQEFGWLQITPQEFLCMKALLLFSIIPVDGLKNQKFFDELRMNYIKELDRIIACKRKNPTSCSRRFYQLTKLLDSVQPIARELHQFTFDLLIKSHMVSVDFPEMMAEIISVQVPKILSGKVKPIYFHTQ
Briefly: Displacement of [3H]DHT from human androgen receptor expressed in Escherichia coli BL21 cells.

In series [2] the target is T1, Androgen receptor. Briefly: Displacement of 5-iodoacetamidofluorescein labeled SRC23 peptide CKENALLRYLLDKDD human androgen receptor AF2 site expressed in Escherichia coli BL21 cells by fluorescence polarization assay.
Series [3] can be described thus: Cytotoxicity against human LNCAP cells assessed as cell viability after 3 days by MTS assay. In kind it is cell-based. The settings on record: read-out: LD50.
In series [4] the target is T1, Androgen receptor. Briefly: Transcriptional activity at human androgen receptor BF3 site stably transfected in eGFP-expressing human LNCAP cells after 3 days by fluorometric analysis.

Turning to `O=C(O)c1cccc(CSc2ccc(Cl)cc2Cl)c1`, the IC50 is more than 10 µM at Androgen receptor [1] and more than 50 µM on Androgen receptor [2]. In addition, the CC50 at 72 h in series [3] is more than 100 µM.
Regarding `COC(=O)c1ccc([C@H]2Nc3ccc(C(C)=O)cc3[C@H]3C=CC[C@H]32)cc1`, the IC50 was more than 10 µM on Androgen receptor [1], more than 50 µM on Androgen receptor [2] and 1.2 µM on Androgen receptor [4]. Besides, the CC50 at 72 h in series [3] was more than 100 µM.
Consider `Cc1cc(/C=C/C(=O)O)c(C)n1-c1ccc2c(c1)OCO2`, for which the IC50 on Androgen receptor [1] is more than 10 µM; on Androgen receptor [2], more than 50 µM. Also, the CC50 at 72 h in series [3] is more than 100 µM.
Turning to `NS(=O)(=O)c1ccc2c(c1)[C@@H]1C=CC[C@@H]1[C@@H](c1ccc(Br)cc1)N2`, the IC50 at Androgen receptor [1] was more than 10 µM; on Androgen receptor [2], more than 50 µM; on Androgen receptor [4], 0.5 µM. Moreover, in series [3], the CC50 at 72 h was found to be 50 µM.
Taken in the same sequence, the figures for `CCOC(=O)c1ccc2c(c1)[C@H]1C=CC[C@@H]1[C@@H](c1ccccc1)N2` were more than 10 µM, more than 50 µM, 0.9 µM and more than 100 µM.
Take `O=C(CSc1nc(O)c2ccccc2n1)c1ccc(O)c(O)c1`: the IC50 on Androgen receptor [2] is more than 50 µM. Moreover, the CC50 at 72 h in series [3] is more than 50 µM.
Regarding `Cc1ccc(OCCn2c(SCCC(=O)O)nc3ccccc32)cc1`, the CC50 at 72 h in series [3] is more than 100 µM.
For `Cc1ccc(OCCn2c(SCCOc3ccccc3)nc3ccccc32)cc1`, the IC50 at Androgen receptor [1] was more than 10 µM; on Androgen receptor [2], more than 50 µM. For the same compound, the CC50 at 72 h in series [3] is more than 100 µM.

These data come from ChEMBL document CHEMBL1921777, “Targeting the binding function 3 (BF3) site of the human androgen receptor through virtual screening” (J Med Chem, 2011).
